Results on 2 molecules are retold here after patent US20240390353A1, “METHOD OF TREATMENT WITH TRADIPITANT” (Vanda Pharmaceuticals Inc., priority 2018, published 2024).

“Also recorded” adds a separate entry of the source.

The test concerns otherwise healthy adults reporting regular illicit opioid misuse. As to the kind of experiment: Double-blind within-subject crossover inpatient study: subject-rated outcomes of intranasal oxycodone during tradipitant vs placebo maintenance (sample sessions). The format is in vivo, human. As to the method: A double-blind, inpatient, approximately 6 week study employing a within-subject crossover design examines the effects of maintenance with tradipitant as compared to placebo on response to oxycodone. Study subjects include otherwise healthy adults reporting regular illicit opioid misuse, and history of intranasal opioid use without physical dependence.
Subjects are administered placebo or tradipitant (85 mg p.o., bid) on study days 3-17 with a washout period on days 18-23, followed by administration of placebo or tradipitant (85 mg p.o., bid) on study days 24-39. In the study, tradipitant/placebo administration is counterbalanced across subjects. On study days 3, […], 24, and 39, subjects participate in challenge sessions (day 1 and steady state) in which they receive 0, 5, 10, or 20 mg intranasal (IN) oxycodone at 1 hr. intervals, after which effect of tradipitant on analgesia in humans is evaluated. On study days 2, 8, 11, 15, 29, 32, and 36, subjects participate in sample sessions in which subjects are administered 0, 15, or 30 mg IN oxycodone, after which effect of tradipitant on subject-rated outcomes is evaluated. Such subject-rated outcomes include responses to questions including “how much do you like the drug,” “does the drug have any good effects,” “do you feel any drug effect,” and “how much do you desire opiates right now?” Further, on study days 9, 12, 16, 30, 33, and 37, subjects participate in choice sessions, in which effect of tradipitant on oxycodone self-administration is evaluated.

Where [1] appears, read: 0, 15 or 30 mg IN oxycodone, difference from 0 mg.
[2] abbreviates: tradipitant 85 mg p.o. bid maintenance, at some opioid drug doses, e.g. 15 mg IN oxycodone, FIGS. 1-3.

Take `COc1ccc2c3c1O[C@H]1C(=O)CC[C@@]4(O)[C@@H](C2)N(C)CC[C@]314` [Oxycodone, oxycodone, reference compound]: for the setting “0, 15 or 30 mg IN oxycodone”, the “effect of oxycodone dose on trough scores for desire for opioids” value is listed as “no significant effect”. Also, under setting [1], the “peak ratings of good effects” value is “significant and dose-dependent increases”; the “peak ratings of liking for the drug” value is “significant and dose-dependent increases”; the “peak ratings of overall drug effect” value is “significant and dose-dependent increases”.

As for `O=C(c1ccccc1Cl)c1cccnc1-c1nnn(Cc2cc(C(F)(F)F)cc(C(F)(F)F)c2)c1-c1ccncc1` [tradipitant], where the note is “tradipitant 85 mg p.o. bid maintenance compared to placebo maintenance, 0, 15 or 30 mg IN oxycodone, FIG. 4”, the “desire for opioids (cravings), trough scores ("how much do you desire opiates right now?")” value was “diminished; also recorded: reduces”. Further, under setting [2], the “perception of how good the effects of the drug were” value is “decreases”, the “perception of how much of a drug effect was felt” value is “decreases” and the “perception of how much the opioid drug was liked” value is listed as “decreases”. Moreover, the “pleasurable and drug seeking sensations” value (tradipitant maintenance, at some doses) is recorded as “decreases”.
